Key:
[1] = system: VDAC1-SOD1 G93A interaction; assay: In vitro VDAC1-SOD1 G93A binding assay after pre-incubation with HK1 or peptide (western blot, densitometry); set-up: species or system human; settings: for reduction of SOD1 G93A in VDAC1-bound fraction: 6.25 μM SOD1 G93A, n = 3
Source text: It is well known that HKs bind to VDAC1 in physiological conditions. We hypothesized that the available area for interaction with soluble proteins is a limited, exposed portion of the transmembrane pore VDAC1. […] For this reason, we repeated the VDAC1-SOD1 G93A binding assay, adding increasing concentrations of HK1. […] The reduction corresponds to the increase of HK1 in VDAC1-bound fraction, and it is proportional to the HK1 concentrations added in the assay (Fig. 3A).
In order to evaluate the NHK1 ability to interfere with VDAC1-SOD1 G93A interaction, a binding assay was performed. Increasing concentrations of NHK1 were added to immobilized-VDAC1, before SOD1 G93A addition. […] In fact, a 20-fold smaller concentration of peptide was used to obtain a result similar to that obtained by using the whole HK1 in the previous experiment (see Fig. 3A).
Recombinant VDAC1 was immobilized onto Ni-NTA Magnetic Agarose Beads (Qiagen) by exploiting its 6xHis-tag, according with manufacture’s protocol. For each experiment, a large excess of VDAC1 (30 μM) were incubated with 50 μL of beads suspension in Interaction Buffer (IB) (300 mM NaCl, 50 mM NaH2PO4, 20 mM imidazole, pH 8.0) to saturate all sites. Beads were collected using the magnet-based system DynaMag-2 (Life Technologies) and washed twice in Wash Buffer (300 mM NaCl, 50 mM NaH2PO4, 20 mM imidazole, 0.05% Tween-20, pH 6.3) to remove any excess of VDAC1. Beads-immobilized VDAC1 were incubated with 6.25 μM SOD1 WT or G93A, for 1 h at RT, under constant shaking, in 100 μL of IB. The assay was also performed by pre-incubating immobilized-VDAC1 for an extra 1 h with increasing concentration of purified human HK1 (0, 100, 200 μM) or NHK1 peptide (0, 5, 10, 25 μM), before SOD1 G93A addition. Beads were recovered using Dyna-Mag2 system and VDAC1-complexes were eluted from beads using 50 μL of Elution Buffer (300 mM NaCl, 50 mM NaH2PO4, 300 mM imidazole, pH 3.5). Any protein in VDAC1-bound and -unbound fractions was evaluated by western blot. Three independent experiments were performed for each condition tested.

[2] = system: human VDAC1 reconstituted into PLB; assay: VDAC1 channel conductance in planar lipid bilayer (PLB); type: biochemical; settings: for effect on single channel VDAC1 conductance: +25 mV, 0.2 μM SOD1 proteins or 15 μM peptide; for effect on voltage-dependence of VDAC1, triangular voltage ramps: symmetric 1 M KCl, ramps 0 to ±50 mV
Source text: Purified VDAC1 was reconstituted into a planar phospholipid bilayer (PLB) and its channel conductance was monitored before and after addition of SOD1 proteins, on cis or trans side of the membrane. […] Moreover, the effect of SOD1 proteins on the voltage-dependence of VDAC1 was monitored by triangular voltage ramps from 0 to ±50 mV. […] The current linearly follows the voltage applied up to about ±25 mV, where VDAC1 decreases its channel conductance through step-like transitions, remaining in low-conducting states.
Under standard experimental condition (1 M KCl and an applied potential of +25 mV) the VDAC1 channel was mainly in low-conducting closed states. […] The effect of NHK1 on the channel conductance is even more evident by plotting the amplitude values obtained in the current traces as a function of the number of events. While for VDAC1 alone the amplitude values appear as a main peak corresponding to the closed states (Fig. 4B), the presence of NHK1 caused a different distribution of events: an additional, different peak corresponding to the open state was visible, together with the closed states peak (Fig. 4C). […] The effect of NHK1 on the voltage-dependence of VDAC1 was monitored by triangular voltage ramps. […] In this experiment, indeed, VDAC1 completely loose, very precociously (already at ±15 mV applied), its ability to linearly respond to the applied voltage: a continuous switch from open to closed states was observed, especially at positive potentials. […] Upon NHK1 incubation, VDAC1 current transitions at positive voltages are very noisy and pass through different sub-conductance states (Fig. 4F).
Purified VDAC1 was reconstituted into a Planar Lipid Bilayer (PLB) apparatus (Warner Instruments, Hamden, CT, USA), previously described. Bilayers were prepared using asolectin (Sigma) dissolved in decane (Sigma) containing 1% chloroform (Sigma) across a 200 μm hole in a derlin cuvette (Warner Instruments). Experiments were performed in 1 M KCl, 10 mM Hepes, pH 7.0[40][46]. Control experiments using empty membrane and/or detergents were performed to avoid activity in any of the above solutions. Data were acquired using a Bilayer Clamp amplifier (Warner Instruments) at 100 μs/point, filtered at 200 Hz and analyzed offline using Clampfit 10.4 program set (Axon Instruments, Union City, CA, USA). Single channel analysis of VDAC1 was performed in presence or not of 0.2 μM of SOD1 WT or G93A, 15 μM NHK1 or ScNHK1 peptide.

NSC34-SOD1G93A cells = assay: Mitochondrial membrane potential (ΔΨm) by flow cytometry; type: cell-based, mouse; settings: TMRM
Experimental: To evaluate the NHK1 influence on mitochondrial functionality, mitochondrial membrane potential variation (ΔΨm) was assayed in the presence of NHK1 peptide or HK1. ΔΨm is related to the ATP production by oxidative phosphorylation; therefore, it is considered an indication of good mitochondrial and cellular health. Using mitochondria-targeted fluorescent probes, we estimated in flow cytometry the rate of mitochondrial depolarization. NSC34-SOD1G93A cells shown a high level of depolarized mitochondria compared to NSC34-SOD1WT. […] Similarly to NHK1 peptide, the expression of the whole HK1 reduced the depolarized mitochondria of about 15% (Fig. 7C).
ΔΨm was measured using tetramethyl-rhodamine methyl ester (TMRM) or Rhodamine 123 (RH123) (Molecular Probes) according to the excitation/emission wavelength of the transfection reporter or of the transfected fluorescent protein used. Both probes accumulates in active mitochondria due to their positive charge, whereby the reduction of ΔΨm leads to the release of fluorescent probes. Transfected NSC34-SOD1WT and NSC34-SOD1G93A cells were washed with PBS and incubated for 30 min at 37 °C with Krebs Ringer Buffered Saline supplemented with either 200 nM TMRM or 0.1 μg/mL RH123 and 20 μM Verapamil (as a multi drug-resistant pump inhibitor) (Sigma). Cells were then harvested and immediately analyzed by flow cytometry. Cells were excited by an air-cooled argon 488 nm laser, reading the GFP fluorescence of HK1-GFP or RH123 fluorescence in FL1 log mode; TMRM and mtDsRED used as transfection reporter of NHK1 peptide were read on FL3 log mode. Only viable cells detected by reading the scattering indicated as FSC and SSC, were considered for our analysis. The threshold physiological value of ΔΨm was estimated by using cells exposed to 1 μM of the uncoupling agent FCCP as a negative control. Data reported are representative for three sets of independent experiments, each performed at least in triplicate and based on 20.000 events for each group. Data were statistical analyzed by chi-square test. A p < 0,001 was taken as significant.

| Sequence | effect on SOD1 G93A in VDAC1-bound fraction ([1]; scramble control, same assay) | effect on single channel VDAC1 conductance ([2]; 1 M KCl) | effect on voltage-dependence of VDAC1, triangular voltage ramps [2] | partial recovery of physiological ΔΨm (NSC34-SOD1G93A cells; NSC34-SOD1G93A expressing scramble peptide) | reduction of SOD1 G93A in VDAC1-bound fraction ([1]; 10 μM peptide pre-incubated 1 h) [%] | reduction of SOD1 G93A in VDAC1-bound fraction ([1]; 25 μM peptide pre-incubated 1 h) [%] | negative membrane potential at which regions of decreased slope already appear (I-V plot) ([2]; 1 M KCl, upon peptide incubation) [mV] | reduction of depolarized mitochondria (NSC34-SOD1G93A cells; NSC34-SOD1G93A expressing peptide, n = 3) [%] |
| --- | --- | --- | --- | --- | --- | --- | --- | --- |
| FAQLTIALAYY [ScNHK1, scramble peptide (…) synthetized and used as control, reference compound] | No similar effect | No influence on the electrophysiological activity | no difference was found | not |  |  |  |  |
| IAAQLLAYYFT [NHK1, peptide corresponding to residues 2–12 (N-terminal region) of human HK1 protein (…)] |  | induced several fast and reversible events of VDAC1 low-conducting closed states | strongly affected the channel voltage-dependence of VDAC1 |  | 40 | 80 | −10 | 20 |
